Here are results for 17 compounds from ChEMBL document CHEMBL3046503, “Insulinotropic activity of chromonyl-2,4-thiazolidinediones” (2009).

The subject of one experiment is INS1. The experiment in a line: Insulinotropic activity in Rattus norvegicus (rat) INS-1 cells assessed as increase of glucose-induced insulin release at 3 mM after 90 min by radioimmunoassay relative to 5.6 mM of glucose. It is filed as functional.
Regarding `OC[C@H]1OC(O)[C@H](O)[C@@H](O)[C@@H]1O` (some centres not stated) [DEXTROSE], the Activity turned out to be 73%.

The subject of the next experiment is INS1. The experiment in a line: Insulinotropic activity in Rattus norvegicus (rat) INS-1 cells assessed as increase of glucose-induced insulin release at 0.001 mg/ml after 90 min by radioimmunoassay relative to 5.6 mM of glucose. It is filed as functional.
For the compound `O=C(O)CN1C(=O)S/C(=C/c2coc3ccc([N+](=O)[O-])cc3c2=O)C1=O`, the Activity is 107.8%.

Turning to `CCOC(=O)CN1C(=O)S/C(=C/c2coc3ccc([N+](=O)[O-])cc3c2=O)C1=O`, the Activity is reported as 98.8%.

On to `CCOC(=O)CN1C(=O)S/C(=C/c2coc3ccccc3c2=O)C1=O`, for which the Activity worked out at 83.15%.

Take `CCOC(=O)CN1C(=O)S/C(=C/c2coc3c(C)cc(C)cc3c2=O)C1=O`: the Activity was 138%.

For the compound `CC(C)c1ccc2occ(/C=C3/SC(=O)NC3=O)c(=O)c2c1`, the Activity stood at 89.46%.

For the compound `O=C1NC(=O)/C(=C\c2coc3ccc([N+](=O)[O-])cc3c2=O)S1`, the Activity is on record as 81.44%.

Consider `O=C(O)CN1C(=O)S/C(=C/c2coc3ccccc3c2=O)C1=O`, for which the Activity came to 117.2%.

In the case of `CCOC(=O)CN1C(=O)S/C(=C/c2coc3ccc(C)cc3c2=O)C1=O`, the Activity was found to be 153.1%.

`Cc1cc(C)c2occ(/C=C3/SC(=O)NC3=O)c(=O)c2c1`: the Activity is 85.89%.

Consider `Cc1cc(C)c2occ(/C=C3/SC(=O)N(CC(=O)O)C3=O)c(=O)c2c1`, for which the Activity was 102.8%.

`COc1ccc(Cl)cc1C(=O)NCCc1ccc(S(=O)(=O)NC(=O)NC2CCCCC2)cc1` [GLYBURIDE]: the Activity was found to be 179.6%.

As for `CC(C)c1ccc2occ(/C=C3/SC(=O)N(CC(=O)O)C3=O)c(=O)c2c1`, the Activity is recorded as 125.6%.

As for `O=C1NC(=O)/C(=C\c2coc3ccccc3c2=O)S1`, the Activity was determined as 83.98%.

Take `CCOC(=O)CN1C(=O)S/C(=C/c2coc3ccc(C(C)C)cc3c2=O)C1=O`: the Activity was 138.5%.

For `Cc1ccc2occ(/C=C3/SC(=O)N(CC(=O)O)C3=O)c(=O)c2c1`, the Activity is 102.2%.

As to `Cc1ccc2occ(/C=C3/SC(=O)NC3=O)c(=O)c2c1`, the Activity was found to be 90.53%.

A further experiment deals with INS1. Kind of experiment: Insulinotropic activity in Rattus norvegicus (rat) INS-1 cells assessed as increase of glucose-induced insulin release at 0.01 mg/ml after 90 min by radioimmunoassay relative to 5.6 mM of glucose. Format: functional.
On to `O=C(O)CN1C(=O)S/C(=C/c2coc3ccc([N+](=O)[O-])cc3c2=O)C1=O`, for which the Activity was found to be 111%.

In the case of `CCOC(=O)CN1C(=O)S/C(=C/c2coc3ccc([N+](=O)[O-])cc3c2=O)C1=O`, the Activity stood at 74.1%.

Turning to `CCOC(=O)CN1C(=O)S/C(=C/c2coc3ccccc3c2=O)C1=O`, the Activity turned out to be 65.53%.

For the compound `CCOC(=O)CN1C(=O)S/C(=C/c2coc3c(C)cc(C)cc3c2=O)C1=O`, the Activity turned out to be 154.4%.

As for `CC(C)c1ccc2occ(/C=C3/SC(=O)NC3=O)c(=O)c2c1`, the Activity was 81.55%.

Regarding `O=C1NC(=O)/C(=C\c2coc3ccc([N+](=O)[O-])cc3c2=O)S1`, the Activity stood at 69.2%.

On to `O=C(O)CN1C(=O)S/C(=C/c2coc3ccccc3c2=O)C1=O`, for which the Activity turned out to be 121%.

In the case of `CCOC(=O)CN1C(=O)S/C(=C/c2coc3ccc(C)cc3c2=O)C1=O`, the Activity was 177.7%.

`Cc1cc(C)c2occ(/C=C3/SC(=O)NC3=O)c(=O)c2c1`: the Activity worked out at 84.64%.

As for `Cc1cc(C)c2occ(/C=C3/SC(=O)N(CC(=O)O)C3=O)c(=O)c2c1`, the Activity is 131.6%.

For the compound `CC(C)c1ccc2occ(/C=C3/SC(=O)N(CC(=O)O)C3=O)c(=O)c2c1`, the Activity turned out to be 144.3%.

Take `O=C1NC(=O)/C(=C\c2coc3ccccc3c2=O)S1`: the Activity is 63.57%.

Take `CCOC(=O)CN1C(=O)S/C(=C/c2coc3ccc(C(C)C)cc3c2=O)C1=O`: the Activity was 180.5%.

Regarding `Cc1ccc2occ(/C=C3/SC(=O)N(CC(=O)O)C3=O)c(=O)c2c1`, the Activity is on record as 120.7%.

Consider `Cc1ccc2occ(/C=C3/SC(=O)NC3=O)c(=O)c2c1`, for which the Activity worked out at 75.61%.
